≈ marks a conversion by molar mass, not a printed value.
Columns and labels:
Bacteroides fragilis = conditions: B. fragilis MMX 123 (ATCC 25285); cited from earlier work
E. faecalis = test: Broth microdilution MIC (Example 11); conditions: Enterococcus faecalis, VRE, VRE Lev^R Cip^R Ery^R
S. pneumoniae [1] = test: Broth microdilution MIC (Example 11); conditions: Streptococcus pneumoniae
Clostridium difficile = conditions: C. difficile MMX 4381 (ATCC 700057); cited from earlier work
S. pyogenes = test: Broth microdilution MIC (Example 11); conditions: Streptococcus pyogenes
S. agalactiae = test: Broth microdilution MIC (Example 11); conditions: Streptococcus agalactiae
[2] = test system: vancomycin-intermediate Staphylococcus aureus (VISA); test: Broth microdilution MIC (Example 12); conditions: Staphylococcus aureus, NRS13 / VISA, read-out: MIC values
[3] = test system: Staphylococcus aureus (MRSA); test: Broth microdilution MIC (Example 11)
S. pneumoniae [4] = conditions: S. pneumoniae MMX 6837 (ATCC 49619); cited from earlier work
[5] = ATCC49619, S. pneumoniae MMX 6837 (ATCC 49619), QC
[6] = S. pneumoniae MMX 880, Lev^R SXT^R CC^R Ery^R Pen^R
[7] = S. pneumoniae MMX 937, Mem^R SXT^R CC^R Ery^R Pen^R
[8] = S. pneumoniae MMX 3959, CC^R Ery^R
[9] = S. pneumoniae MMX 5440, Mem^R SXT^R CC^R Ery^R Pen^R
[10] = S. pneumoniae MMX 5445, Mem^R SXT^R CC^R Ery^R Pen^R
[11] = S. pneumoniae MMX 8133, Mem^R SXT^R CC^R Ery^R Pen^R
[12] = S. pyogenes MMX 3820, ERY^R CLI^R
[13] = S. pyogenes MMX 3929, ERY^R CC^R
[14] = S. pyogenes MMX 5091, ERY^R CC^R
[15] = S. agalactiae MMX 3741, ERY^R CC^R
[16] = S. agalactiae MMX 3743, ERY^R CC^R
[17] = S. agalactiae MMX 4077, ERY^R CC^R
[18] = S. agalactiae MMX 4079, ERY^R CC^R Pen^R MEM^R
[19] = S. agalactiae MMX 4086, ERY^R CC^R

Structure (SMILES)	MIC (S. pneumoniae [1]; [5]) [µg/mL]	MIC (S. pneumoniae [1]; [6]) [µg/mL]	MIC (S. pneumoniae [1]; [7]) [µg/mL]	MIC (S. pneumoniae [1]; [8]) [µg/mL]	MIC (S. pneumoniae [1]; [9]) [µg/mL]	MIC (S. pneumoniae [1]; [10]) [µg/mL]	MIC (S. pneumoniae [1]; [11]) [µg/mL]	MIC (S. pyogenes; S. pyogenes MMX 3068, Ery^R) [µg/mL]	MIC (S. pyogenes; [12]) [µg/mL]	MIC (S. pyogenes; S. pyogenes MMX 3919, ERY^R) [µg/mL]	MIC (S. pyogenes; [13]) [µg/mL]	MIC (S. pyogenes; [14]) [µg/mL]	MIC (S. agalactiae; [15]) [µg/mL]	MIC (S. agalactiae; [16]) [µg/mL]	MIC (S. agalactiae; [17]) [µg/mL]	MIC (S. agalactiae; [18]) [µg/mL]	MIC (S. agalactiae; [19]) [µg/mL]	further results
CCC[C@@H]1C[C@@H](C(=O)N[C@@H]([C@H]2O[C@H](SC)[C@H](O)[C@@H](O)[C@H]2O)[C@H](C)Cl)N(C)C1 [clindamycin]	0.06 (≈ 0.141 µM)	> 8	> 8	> 8	> 8	> 8	> 8	0.06 (≈ 0.141 µM)	1 (≈ 2.35 µM)	0.12 (≈ 0.282 µM)	> 8	> 8	> 8	> 8	> 8	> 8	> 8	MIC, CLSI QC range (Bacteroides fragilis): (0.5-2)^1 ^ pg/mL; MIC (E. faecalis; E. faecalis MMX 8960): > 32 µg/mL; MIC (E. faecalis; E. faecalis MMX 8961): > 32 µg/mL; MIC (E. faecalis; E. faecalis MMX 8962): > 32 µg/mL; MIC, CLSI QC range (Clostridium difficile): (2-8) pg/mL; MIC [2]: ≥ 4 µg/mL; MIC ([3]; ATCC29213|MRSA|MSSA, S. aureus MMX 101 (ATCC 29213), QC, MSSA): 0.12 µg/mL (≈ 0.282 µM); MIC ([3]; MRSA, S. aureus MMX 5373, MRSA Lev^R Cip^R CC^R Ery^R Ox^R): > 32 µg/mL; MIC ([3]; MRSA, S. aureus MMX 6311, MRSA Lev^R Cip^R CC^R Ery^R Ox^R): > 32 µg/mL; MIC ([3]; MRSA, S. aureus MMX 9203, MRSA Lev^R Cip^R Ery^R Ox^R): 0.12 µg/mL (≈ 0.282 µM); MIC ([3]; MRSA, S. aureus MMX 9204, MRSA Lev^R Cip^R Ery^R Ox^R): 0.12 µg/mL (≈ 0.282 µM); MIC ([3]; MRSA, S. aureus MMX 9205, MRSA Lev^R Cip^R CC^R Ery^R Ox^R): > 32 µg/mL
CC1(C)S[C@@H]2[C@H](NC(=O)Cc3ccccc3)C(=O)N2[C@H]1C(=O)O [Penicillin]	0.25 (≈ 0.748 µM)	2 (≈ 5.98 µM)	4 (≈ 12 µM)	0.12 (≈ 0.359 µM)	4 (≈ 12 µM)	4 (≈ 12 µM)	4 (≈ 12 µM)	≤ 0.008	≤ 0.008	≤ 0.008	≤ 0.008	≤ 0.008	0.03 (≈ 0.0897 µM)	0.06 (≈ 0.179 µM)	0.06 (≈ 0.179 µM)	2 (≈ 5.98 µM)	0.06 (≈ 0.179 µM)	MIC, CLSI QC range (S. pneumoniae [4]): (0.25-1) μg/mL

— patent publication US11464749B2, “Bismuth-thiol compositions and methods of use” (Microbion Corporation, priority 2018, dated 2022)
